Data published in patent US20070110779A1, “Activated peroxide solutions and a process for the preparation thereof” (ASEPTIX TECHNOLOGIES B.V., priority 2005, published 2007).
Where two headings read alike, the source gives them in different places.

Columns and labels:
[1] = pH measurement of the solution; assay type: physicochemical
Procedure: (§1) The peroxide concentration is determined by a potassium permanganate titration procedure and the devices used for the measurement of pH, ORP and conductivity are a WTW 537, a Testo 230 ORP and a HANNA EC device, respectively.

[2] = oxidation-reduction potential (ORP) measurement of the solution; assay type: physicochemical
Procedure: as §1

[3] = electrical conductivity measurement of the solution; assay type: physicochemical
Procedure: as §1

Escherichia coli = assay: bactericidal suspension test conform EN 1040 (Example 1); assay type: cell-based; details: after 5 minutes
Procedure: (§2) In a controlled bactericidal suspension test conform European Norm for testing of basic bactericidal activity of chemical disinfectants and antiseptics EN 1040, a 1 ml McFarland standard 0.5 (10^8 microorganisms per ml) was mixed 1:8 with the activated peroxide solution and 1 ml milli-Q water. After 10 minutes, Staphylococcus aureus was killed 100%, while Escherichia coli, Salmonella typhimurium, Rhodotorula rubra and Pseudomonas aeruginosa were all killed 100% already after 5 minutes. A 100% kill typically is shown by at least a log 5 reduction.

Pseudomonas aeruginosa = assay: as above; assay type: cell-based; details: after 5 minutes
Procedure: as §2

Rhodotorula rubra = assay: as above; assay type: cell-based; details: after 5 minutes
Procedure: as §2

Salmonella typhimurium = assay: as above; assay type: cell-based; details: after 5 minutes
Procedure: as §2

Staphylococcus aureus = assay: as above; assay type: cell-based
Procedure: as §2

[4] = tested on: Corynebacterium minitissium; assay: test of corona treated solution against strains of bacteria (Example 3); assay type: cell-based; details: after 5 minutes
Procedure: (§3) The corona treated solution was then tested against several strains of bacteria and compared to untreated solutions of 1% hydrogen peroxide.

E. coli = assay: as above; assay type: cell-based; details: after 5 minutes
Procedure: as §3

Lysteria = assay: as above; assay type: cell-based; details: after 5 minutes
Procedure: as §3

| SMILES | pH of the solution [1] | ORP of the solution [2] [mV] | conductivity [3] | also measured |
| --- | --- | --- | --- | --- |
| OO [5% H2O2, hydrogen peroxide] | approximately 3.7 | 428 | 90 μS/cm | – |
| OO [1.6% common hydrogen peroxide solution, hydrogen peroxide] | – | – | – | killed (Escherichia coli): < 100%; killed (Pseudomonas aeruginosa): < 100%; killed (Rhodotorula rubra): < 100%; killed / reduction (Salmonella typhimurium): 70%; reduction (Staphylococcus aureus; after 5 minutes): none; reduction (Staphylococcus aureus; after 20 minutes): 50% |
| OO [3% H2O2, hydrogen peroxide] | approximately 3.9 | 411 | 60 μS/cm | – |
| OO [0.5% H2O2, hydrogen peroxide] | approximately 4.6 | 374 | approximately 21 μS/cm | – |
| OO [standard 1% hydrogen peroxide, hydrogen peroxide] | – | – | – | reduced with log [4]: no countable reduction; reduced with log (E. coli): no countable reduction; reduced with log (Lysteria): no countable reduction; pH of the solution ([1]; listed as 1% H2O2): approximately 4.4; ORP of the solution ([2]; listed as 1% H2O2): 390 mV; conductivity ([3]; listed as 1% H2O2): 30 μS/cm |
| OO [Example 1 solution before activation, hydrogen peroxide] | 5.8 | – | – | – |
| OO [Example 3 starting solution, hydrogen peroxide] | 4.5 | 380 | 17.8 microSiemens/cm | – |
| OO [10% H2O2, hydrogen peroxide] | approximately 3.3 | 446 | 110 μS/cm | – |
| OO [0.1% H2O2, hydrogen peroxide] | approximately 4.9 | 355 | 20 μS/cm | – |
